Experimental data: PMC7076374, “Improved Pharmacokinetics and Tissue Uptake of Complexed Daidzein in Rats” (Pharmaceutics, 2020)
Like-named read-outs stand apart in the source and are kept apart here.

What was measured:
[1] = healthy premenopausal women, cited from earlier work
in vivo [2] = details: for tmax: DAI in suspension, i.p. 50 mg/kg, rat serum
Protocol: (§1) DAI in the form of a suspension in saline was administered to the rats at the doses of 20 mg/kg (i.v.) and 50 mg/kg (i.p.).
The second study was conducted in 48 animals to assess DAI tissue penetration and bioavailability. […] Animals were deeply anaesthetized by i.p. injections of 50 mg/kg ketamine plus 8 mg/kg xylazine before sacrifice. First, the blood was collected by retro-orbital puncture, and the blood samples were centrifuged to obtain serum. The serum samples were frozen in a freezer at −80 °C. A whole-body saline perfusion was then performed after wide laparotomy when the heart was exposed, and the tip of the needle was inserted into the left ventricle and the right atrium was cut to allow efflux of blood. This procedure allowed the blood from all tissues to be washed out to determine the amount of DAI in the tissue, excluding its content in the blood. Following the animals’ euthanasia, the following samples were collected: whole brain, whole eyes, liver lobe, abdominal fat, one kidney, whole spleen, one testis, and selected parts of heart and lungs. The brain was cut between hemispheres in halves; one half was weighed, inserted into 2 mL of SDS-tris lysing buffer (100 mM tris buffer, 10% glycerol, 1% sodium dodecyl sulfate), and homogenized with a tissue homogenizer. The other half of the brain, the homogenates, and all other tissue samples collected were immediately shock-frozen in liquid nitrogen and stored at −80 °C for future analysis.
(§2) PK parameters were calculated using a non-compartmental approach from the average concentration values, using Phoenix WinNonlin software (Certara, St. Louis, MO, USA). The first-order elimination rate constant (λz) was calculated by linear regression of log concentration versus time. The area under the mean serum and tissue concentration versus time curve (AUC0⟶t) was calculated from zero to the last concentration point using the linear trapezoidal rule as (1) AUC0→t=∑i=1nCi+Ci+1/2·(ti+1−ti) where Ci is the concentration of the compound.
(§3) The area under the first-moment curve (AUMC0⟶t) was estimated by calculation of the total area under the first-moment curve:(2) AUMC0→t=∑i=1n((ti·Ci+ti+1·Ci+1)/2)·(ti+1−ti) where ti is the […].
(§4) Mean residence time (MRT) was calculated as (3) MRT=AUMC0→t/AUC0→t

in vivo [3] = details: rat, iv, 20 mg/kg
Protocol: as §1
Blood samples were collected via a retro-orbital puncture at 15 min, 30 min, 3 h, 5 h, and 24 h after i.v. administration. The first two blood samples (at 15 min and 30 min) were withdrawn while the rats were still under general anesthesia. For the later time-points, the blood was taken under a short isoflurane anesthesia. One mL of saline was administered i.p. after every blood withdrawal to compensate the loss of water. The rats were sacrificed by decapitation 24 h after compound administration. All blood samples were centrifuged to obtain serum. The serum samples were frozen in a freezer at −80 °C.
as §2, §3, §4
Systemic clearance (Cl) was calculated as (4) Cl=Div/AUC0→t
The volume of distribution at steady state (Vss) was calculated as (5) Vss=Div⋅AUMC0→t/(AUC0→t)^2

[4] = male, rat, in vivo, ip, 50 mg/kg

O=c1c(-c2ccc(O)cc2)coc2cc(O)ccc12 [DAI in Suspension, 7-hydroxy-3-(4-hydroxyphenyl)-4H-chromen-4-one]
Bioavailability of DAI ([1]; first value of '5.15% vs. 8.7%', at higher intakes): 5.15%
Bioavailability of DAI ([1]; second (comparison) value of '5.15% vs. 8.7%'): 8.7%
tmax (in vivo [2]; 50 mg/kg): 0.75 h
bioavailability (in vivo [2]; male, rat, in vivo): 28.2%
AUC (in vivo [2]; [4]): 1110 ng·h/mL
CL/F (in vivo [2]; [4]): 775 mL/min/kg
MRT (in vivo [2]; [4]): 3.63 h
Vd/F (in vivo [2]; [4]): 220 L/kg
half-life (in vivo [2]; [4]): 3.41 h
Cmax (in vivo [2]; male, rat, in vivo, ip, 50 mg/kg, Cmax): 173 ng/mL
tmax (in vivo [2]; male, rat, in vivo, ip, 50 mg/kg, tmax): ≤ 0.75 h
AUC (in vivo [3]): 1580 ng·h/mL
C0 (in vivo [3]): 6160 ng/mL
MRT (in vivo [3]): 4.29 h
clearance (in vivo [3]): 211 mL/min/kg
half-life (in vivo [3]): 3.83 h
